Experimental findings from PubChem BioAssay AID1645848 are described below.

The conditions of the data set: buffer; pH 7.4; 6.0 h; 150.0 µM.

Structures are written as SMILES. Converted amounts (≈) assume the structure as drawn. Bounds are passed on as bounds.

For orientation: kinetic solubility means the concentration staying in solution when a stock, usually in DMSO, is diluted into the medium. For the compound `Cc1sc(NC(=O)Cc2ccc3c(c2)OCO3)nc1-c1ccc2c(c1)CCN2C(=O)c1ccccc1`, the solubility (kinetic) was less than 1 µg/mL.

`CC(C)Oc1cccc(C2CC(=O)Nc3cc4c(cc32)OCO4)c1` (stereo unspecified) came in with a kinetic solubility of 1.53 µg/mL (≈ 4.7 µM).

For `Cc1cccc(N2CCN(C(=O)Cn3ncc4c3-c3ccccc3OC4)CC2)c1C`, the solubility (kinetic) came to 3.85 µg/mL (≈ 9.57 µM).

In the case of `CC[C@H](C)[C@@H]([C@@H](CC(=O)N1CCC[C@H]1[C@H](OC)[C@@H](C)C(=O)N[C@@H](Cc1ccccc1)c1nccs1)OC)N(C)C(=O)[C@@H](NC(=O)[C@H](C(C)C)N(C)C)C(C)C`, the kinetic solubility came out at 65.7 µg/mL (≈ 83.7 µM).

In the case of `CSc1ccccc1-c1ccc(Nc2nc(-c3ccncc3)nc3ccccc23)cc1F`, the kinetic solubility was less than 1 µg/mL.

Turning to `CC(C)CN(C[C@@H](O)[C@H](Cc1ccccc1)NC(=O)O[C@@H]1CO[C@H]2OCC[C@H]21)S(=O)(=O)c1ccc(N)cc1`, the kinetic solubility is greater than 81 µg/mL.

The compound `Fc1cc(Nc2nc(-c3ccncc3)nc3ccccc23)ccc1-c1cccc(OC(F)F)c1` showed a kinetic solubility of less than 1 µg/mL.

With `N#Cc1c(NC(=O)c2cccc3ccccc23)sc2c1CCCC2`, the solubility (kinetic) is less than 1 µg/mL.

With `Cc1ccc(C)c(NC2=C(c3ccc(C(F)(F)F)cc3)C(=O)c3ccccc32)c1`, the kinetic solubility was less than 1 µg/mL.

For the compound `Cc1ccccc1-c1nc(NCc2ccc(-c3cccnc3)cc2)c2ccccc2n1`, the solubility (kinetic) is less than 1 µg/mL.

Compound `Cc1nn2c(c1-c1ccccc1-c1ccccc1)N(CCC(C)C)CCC2` registered a kinetic solubility of less than 1 µg/mL.

`CC(C)Oc1ccc(CNC(=O)C2CCN(C(=O)N3CCOc4ccc(Cl)cc43)CC2)cc1` yielded a kinetic solubility of 9.14 µg/mL (≈ 19.4 µM).

Turning to `COc1cc2c(cc1OC)C(C[C@H]1CN(S(=O)(=O)c3cccc(C#N)c3)CC[C@H]1CC(=O)O)=NCC2`, the kinetic solubility is greater than 76 µg/mL.

As for `CC(C)NC(=O)C1CCN(C(=O)c2cc3sccc3n2Cc2ccc(Cl)cc2)CC1`, the solubility (kinetic) was less than 1 µg/mL.

`CCNC(=O)c1noc(-c2cc(C(C)C)c(O)cc2O)c1-c1ccc(CN2CCOCC2)cc1` returned a solubility (kinetic) greater than 69 µg/mL.

For the compound `Oc1c(CN2CCN(c3ccccn3)CC2)cc(Cl)c2cccnc12`, the solubility (kinetic) came to 11.4 µg/mL (≈ 32.1 µM).

Compound `CCOC(=O)C1CCN(C(=O)C(C)(C)NC(=O)Nc2ccc(Cl)cc2Cl)CC1` yielded a kinetic solubility of 37 µg/mL (≈ 86 µM).

In turn, `CCS(=O)(=O)N1CC(CC#N)(n2cc(-c3ncnc4[nH]ccc34)cn2)C1` showed a solubility (kinetic) greater than 55 µg/mL.

Regarding `NC(=O)C1CCN(c2nc(-c3ccc(OCc4ccccc4)cc3)cs2)CC1`, the kinetic solubility was less than 1 µg/mL.

As to `O=C1CCc2cc(S(=O)(=O)Nc3ccc(F)c(Cl)c3)ccc2N1`, the solubility (kinetic) was greater than 52 µg/mL.

`NC(=O)C1CCN(c2ncc(-c3ccc4c(c3)OCCO4)s2)CC1` had a solubility (kinetic) of 4.52 µg/mL (≈ 13.1 µM).

The compound `CNc1oc(-c2cccc3ccccc23)nc1C(=O)Nc1cccc(C#N)c1` yielded a kinetic solubility of less than 1 µg/mL.

In turn, `Cc1n[nH]c(C)c1CCc1nc2c3ccccc3nc(SCC(=O)Nc3ccc(F)cc3)n2n1` showed a solubility (kinetic) of less than 1 µg/mL.

In turn, `O=c1[nH]c(N2CCOCC2)nc2c1CCN(Cc1ccc(Cl)cc1F)CC2` came in with a kinetic solubility greater than 58 µg/mL.

`c1cc(-c2cc(-c3ccncc3)c3cncn3c2)c2cc[nH]c2c1`: the kinetic solubility is less than 1 µg/mL.

Turning to `CN(C)C(=O)c1nc(-c2ccc(Cl)cc2Cl)c2cnccn12`, the solubility (kinetic) was greater than 59 µg/mL.

For `OCCNc1ncnc2c1ncn2[C@@H]1O[C@@H](CO)[C@H](O)[C@@H]1O`, the solubility (kinetic) was greater than 46 µg/mL.

For `COc1ccc2[nH]c3c(c2c1)CCNC31CCN(S(=O)(=O)c2c(C)noc2C)CC1`, the solubility (kinetic) was 7.38 µg/mL (≈ 17.1 µM).

`Fc1ccc(-c2csc3ncnc(Sc4nnnn4-c4ccccc4)c23)cc1` gave a kinetic solubility of 0.705 µg/mL (≈ 1.73 µM).

In the case of `COc1cc(-c2csc(N3CCC(C(N)=O)CC3)n2)cc(OC)c1OC`, the solubility (kinetic) was greater than 56 µg/mL.

As to `Cc1ccc(S(=O)(=O)Nc2cnccc2C(=O)Nc2nc(-c3ccncc3)cs2)cc1`, the kinetic solubility is greater than 67 µg/mL.

`CCOc1ccc(NC(=O)CC2C(=O)N(c3ccc(F)cc3)C(=O)N2CCc2sccc2C)cc1` (stereo unspecified) showed a solubility (kinetic) of less than 1 µg/mL.

As for `COc1ccc(C(=O)NC2CCCc3c2[nH]c2ccccc32)cc1OC` (stereo unspecified), the kinetic solubility was determined as 4.79 µg/mL (≈ 13.7 µM).

In turn, `CN1CCN(Cc2ccc(-c3ccc(C(C)(C)C#N)cc3)nc2)CC1` had a solubility (kinetic) greater than 49 µg/mL.

Consider `Cc1ccc(C(=O)Nc2ccc3oc(-c4cccnc4)nc3c2)cc1[N+](=O)[O-]`, for which the solubility (kinetic) is less than 1 µg/mL.

As for `COc1cc(O)c([C@H](CC(=O)N2CC(C)CC(C)C2)c2ccc3c(c2)OCO3)c(OC)c1` (stereo partly specified), the kinetic solubility was 2.51 µg/mL (≈ 5.69 µM).

`O=C(c1ccc(C(=O)N2CCC(N3CCCC3)CC2)c(Nc2ccccc2)c1)N1CCC(N2CCCC2)CC1` yielded a kinetic solubility of 63.8 µg/mL (≈ 120 µM).

In turn, `CC(C)N(CCCNC(=O)Nc1ccc(C(C)(C)C)cc1)C[C@H]1O[C@@H](n2cc(Br)c3c(N)ncnc32)[C@H](O)[C@@H]1O` came in with a kinetic solubility of 73 µg/mL (≈ 118 µM).

In the case of `Cc1cccc([C@H]2[C@@H]3C=CC[C@@H](C)[C@@H]3C(=O)N2Cc2ccccc2)c1`, the kinetic solubility is less than 1 µg/mL.

Compound `CC(=O)c1c(C)[nH]c(C(=O)Nc2cccc(S(=O)(=O)Nc3ccc(Br)cc3)c2)c1C` had a kinetic solubility of less than 1 µg/mL.

Consider `NC(=O)C1CCN(c2ncc(Br)cn2)CC1`, for which the kinetic solubility is greater than 42 µg/mL.

On to `Cc1ccc2oc3c(c(=O)c2c1)C(c1ccc(O)cc1)N(CCCN(C)C)C3=O` (stereo unspecified), for which the kinetic solubility was greater than 58 µg/mL.

Regarding `Cc1ccccc1NC(=O)Nc1cccs1`, the kinetic solubility was greater than 34 µg/mL.

Compound `Cc1ccnc(NC(=S)N2CCCC(Nc3cccc(C(F)(F)F)c3)C2)c1` (stereo unspecified) had a solubility (kinetic) of 11.6 µg/mL (≈ 29.5 µM).

For the compound `Cn1cc(Nc2cnccc2C(=O)O)c2cccnc21`, the solubility (kinetic) came to 32.6 µg/mL (≈ 122 µM).

`CN(C)C(=O)c1cc2cnc(Nc3ccc(N4CCNCC4)cn3)nc2n1C1CCCC1` displayed a kinetic solubility greater than 64 µg/mL.

On to `Cc1ccc(-c2[nH]n3c(=O)c4c(nc3c2C)CCCC4)cc1`, for which the kinetic solubility is 1.03 µg/mL (≈ 3.52 µM).

In turn, `O=C(Nc1nc(-c2ccccc2)cs1)c1ccncc1NS(=O)(=O)c1ccc(F)c(F)c1` displayed a kinetic solubility of 49.8 µg/mL (≈ 105 µM).

`Cc1cc(C)nc(NC(=S)N2CCN(c3ccc4nsnc4c3)CC2)c1` returned a solubility (kinetic) of 27.7 µg/mL (≈ 72.1 µM).

Regarding `CSc1ccc(/C=C/c2nc3ccccc3n2S(=O)(=O)c2ccc(Br)cc2)cc1`, the solubility (kinetic) was 2.73 µg/mL (≈ 5.63 µM).

Consider `Cc1ccc(CN2C(=O)C(O)(CC(=O)c3ccc(C)cc3)c3ccccc32)cc1` (stereo unspecified), for which the solubility (kinetic) is less than 1 µg/mL.

Compound `C[C@@H]1CN(CC(=O)N2CC(C)(C)c3ncc(Cc4ccc(F)cc4)cc32)[C@@H](CN2CCOC[C@H]2C)CN1` returned a solubility (kinetic) greater than 75 µg/mL.

`COC(=O)c1ccc(Nc2nc(-c3ccncc3)nc3ccccc23)cc1OC` yielded a solubility (kinetic) of less than 1 µg/mL.

`Nc1c(-c2ccncc2)cc[nH]c1=O` showed a solubility (kinetic) of 11.8 µg/mL (≈ 63.1 µM).

The compound `CCN(C(=O)C(NS(=O)(=O)c1ccc(Br)s1)c1ccccc1)c1ccc(C)c(C)c1` (stereo unspecified) registered a kinetic solubility of less than 1 µg/mL.

Consider `O=S(=O)(Nc1ccc2ccccc2c1)c1ccc(NCc2ccc(Br)cc2O)cc1`, for which the kinetic solubility is less than 1 µg/mL.

Turning to `Cc1ccc(-c2cc(C(=O)Nc3ccc(S(=O)(=O)N(C)Cc4nccs4)cc3)c3ccccc3n2)cc1C`, the kinetic solubility worked out at 3.73 µg/mL (≈ 6.88 µM).

Turning to `O=C(c1ccc2ccccc2c1)N1CCN(c2ccc(O)cc2)CC1`, the kinetic solubility turned out to be 27.5 µg/mL (≈ 82.7 µM).

Regarding `CS(=O)(=O)Nc1cccc(-c2nccc(-n3ccnc3)n2)c1`, the kinetic solubility was greater than 47 µg/mL.

In turn, `CN1CCN(C(=O)c2ccc3cc(CCNc4ncnc5ccc(C#N)cc45)ccc3c2)CC1` had a kinetic solubility of 49.7 µg/mL (≈ 110 µM).

As to `CCCNC(=O)c1ccc2c(c1)N=C(C)c1c(C)ccc(C)c1S2`, the solubility (kinetic) stood at 2.73 µg/mL (≈ 8.08 µM).

The compound `Fc1ccc(Nc2nc(-c3ccncc3F)nc3ccccc23)cc1F` came in with a solubility (kinetic) of less than 1 µg/mL.

The compound `CCCc1c(CC)c(=N)c2ccccc2n1C.I` showed a solubility (kinetic) greater than 34 µg/mL.

Turning to `CC1CC(C)(C)N(C(=O)CN2C(=O)c3ccccc3C2=O)c2ccccc21` (stereo unspecified), the kinetic solubility worked out at 7.25 µg/mL (≈ 20 µM).

For the compound `Cc1ccc(-n2c(=O)c3oc4ccccc4c3n(CC(=O)Nc3ccc(F)c(Cl)c3)c2=O)cc1C`, the kinetic solubility is less than 1 µg/mL.

`CCOC(=O)c1[nH]c(C)c(CCC(=O)N2CCN(c3cc(C)ccc3C)CC2)c1C` had a solubility (kinetic) of 6.25 µg/mL (≈ 15.2 µM).

Turning to `COc1ccc(Nc2nc(-c3ccncc3)nc3ccccc23)cc1F`, the kinetic solubility was less than 1 µg/mL.

`Cc1cccc2oc(NC3=NC(c4[nH]ncc4Cl)C4=C(CCCC4=O)N3)nc12` (stereo unspecified) gave a kinetic solubility of less than 1 µg/mL.

With `Fc1ccccc1Nc1nc(-c2ccncc2)nc2ccccc12`, the kinetic solubility was less than 1 µg/mL.

As to `Cc1ccc(-c2ccnc(N3CCC(C(N)=O)CC3)n2)cc1`, the solubility (kinetic) was 2.67 µg/mL (≈ 9.01 µM).

For the compound `Cc1nc(Sc2nnnn2C)c2c(-c3ccccc3)csc2n1`, the solubility (kinetic) was found to be 19.4 µg/mL (≈ 57.1 µM).

In the case of `O=C(Nc1ccccc1O)c1ccc(NC(=O)C2CC2)cc1`, the kinetic solubility is 1.75 µg/mL (≈ 5.92 µM). Against the preceding compound, the solubility kinetic is about 11-fold lower.

For `CS(=O)(=O)c1ccc(-c2csc(N3CCC(C(N)=O)CC3)n2)cc1`, the kinetic solubility turned out to be 7.22 µg/mL (≈ 19.8 µM). Against the preceding compound, the solubility kinetic is about 4.1-fold higher.

`O=C1CCCC2=C1C(c1ccccc1Cl)N=C(Nc1nc3ccccc3o1)N2` (stereo unspecified) gave a solubility (kinetic) of less than 1 µg/mL.

Compound `Cc1ccc(-c2cc(C(=O)Nc3ccc(S(C)(=O)=O)cc3)c3ccccc3n2)cc1C` came in with a solubility (kinetic) of less than 1 µg/mL.

`C[C@@H](NC(=O)c1ncnc(N)c1Cl)c1ncc(C(=O)Nc2cc(C(F)(F)F)c(Cl)cn2)s1` showed a solubility (kinetic) greater than 75 µg/mL.

With `CCc1ccccc1-n1c(SCC(=O)Nc2ccc(C)cc2)nc2n[nH]c(C)c2c1=N`, the solubility (kinetic) was less than 1 µg/mL.

Compound `CCNC(=O)Nc1ncc(-c2cc(-c3c(C)cc(OC)cc3C)nc(-c3cnccn3)n2)s1` yielded a kinetic solubility of less than 1 µg/mL.

Compound `COC(=O)C1=C(C)NC(C)=C(C(=O)OCCCN2CCC(c3ccccc3)(c3ccccc3)CC2)C1c1cccc([N+](=O)[O-])c1.Cl` (stereo unspecified) gave a solubility (kinetic) of less than 1 µg/mL.

In turn, `COc1ccc(-n2nc(C3CCCN(C(=O)c4ccccc4F)C3)[nH]c2=O)cc1` (stereo unspecified) yielded a solubility (kinetic) of 37.3 µg/mL (≈ 94.1 µM).

`COc1ccc(C2CC(=O)Nc3nc(N)sc32)cc1OC` (stereo unspecified) came in with a solubility (kinetic) of 30.5 µg/mL (≈ 99.8 µM).

Regarding `CC(C)OC(=O)c1ccnc2cc(C(OCCN3CCCCC3)c3ccccc3Cl)sc12` (stereo unspecified), the kinetic solubility is 16.6 µg/mL (≈ 35 µM).

Turning to `CNC(=O)c1ccccc1Nc1nc(Nc2ccc(N3CCOCC3)cc2OC)ncc1Cl`, the kinetic solubility was 4.18 µg/mL (≈ 8.91 µM).

Regarding `CCOc1ccc(CN2C(=O)c3ccccc3Sc3ccc(C(=O)NC4CCC(C)CC4)cc32)cc1` (stereo unspecified), the kinetic solubility is 6.78 µg/mL (≈ 13.5 µM).

For the compound `Cc1ccc2c(c1)c(=O)c1ccccc1n2CCCC(=O)Nc1cc(Cl)ccc1C`, the solubility (kinetic) is less than 1 µg/mL.

In turn, `CCN1CCN(c2ccc3cc(S(=O)(=O)N4CCOCC4)ccc3n2)CC1` came in with a solubility (kinetic) greater than 58 µg/mL.
